From US20060223841A1 (priority 2003, published 2006)

Experiment: Stability of ratio of the mixture of desloratadine polymorphic forms on storage (XRPD)
Type: physicochemical
Conditions: 25° C., 60% RH; 0 week
Excerpt: Copper radiation of 1.5418 Å was used.
In all cases samples were packed in polyethylene and store above conditions.

Row | Structure (SMILES) | Form 1 (%) | Form 2 (%)
1 | Clc1ccc2c(c1)CCc1cccnc1C2=C1CCNCC1 [Example 1 of Stability Tests, desloratadine] | 57 | 43
2 | Clc1ccc2c(c1)CCc1cccnc1C2=C1CCNCC1 [Example 2 of Stability Tests, desloratadine] | 62 | 38
3 | Clc1ccc2c(c1)CCc1cccnc1C2=C1CCNCC1 [Example 3 of Stability Tests, desloratadine] | 74 | 26
4 | Clc1ccc2c(c1)CCc1cccnc1C2=C1CCNCC1 [Example 4 of Stability Tests, desloratadine] | 76 | 24

Same assay, conditions: 25° C., 60% RH; 1 month (4 weeks)

Row | Structure (SMILES) | Form 1 (%) | Form 2 (%)
5 | Clc1ccc2c(c1)CCc1cccnc1C2=C1CCNCC1 [Example 1 of Stability Tests, desloratadine] | 55 | 45
6 | Clc1ccc2c(c1)CCc1cccnc1C2=C1CCNCC1 [Example 2 of Stability Tests, desloratadine] | 66 | 34
7 | Clc1ccc2c(c1)CCc1cccnc1C2=C1CCNCC1 [Example 3 of Stability Tests, desloratadine] | 79 | 21
8 | Clc1ccc2c(c1)CCc1cccnc1C2=C1CCNCC1 [Example 4 of Stability Tests, desloratadine] | 82 | 18

Same assay, conditions: 25° C., 60% RH; 1 week

Row | Structure (SMILES) | Form 1 (%) | Form 2 (%)
9 | Clc1ccc2c(c1)CCc1cccnc1C2=C1CCNCC1 [Example 1 of Stability Tests, desloratadine] | 59 | 41
10 | Clc1ccc2c(c1)CCc1cccnc1C2=C1CCNCC1 [Example 2 of Stability Tests, desloratadine] | 65 | 35
11 | Clc1ccc2c(c1)CCc1cccnc1C2=C1CCNCC1 [Example 3 of Stability Tests, desloratadine] | 79 | 21
12 | Clc1ccc2c(c1)CCc1cccnc1C2=C1CCNCC1 [Example 4 of Stability Tests, desloratadine] | 87 | 13

Same assay, conditions: 25° C., 60% RH; 2 months (8 weeks)

Row | Structure (SMILES) | Form 1 (%) | Form 2 (%)
13 | Clc1ccc2c(c1)CCc1cccnc1C2=C1CCNCC1 [Example 1 of Stability Tests, desloratadine] | 63 | 37
14 | Clc1ccc2c(c1)CCc1cccnc1C2=C1CCNCC1 [Example 2 of Stability Tests, desloratadine] | 67 | 33
15 | Clc1ccc2c(c1)CCc1cccnc1C2=C1CCNCC1 [Example 3 of Stability Tests, desloratadine] | 75 | 25
16 | Clc1ccc2c(c1)CCc1cccnc1C2=C1CCNCC1 [Example 4 of Stability Tests, desloratadine] | 86 | 14

Same assay, conditions: 25° C., 60% RH; 2 weeks

Row | Structure (SMILES) | Form 1 (%) | Form 2 (%)
17 | Clc1ccc2c(c1)CCc1cccnc1C2=C1CCNCC1 [Example 1 of Stability Tests, desloratadine] | 53 | 47
18 | Clc1ccc2c(c1)CCc1cccnc1C2=C1CCNCC1 [Example 2 of Stability Tests, desloratadine] | 61 | 39
19 | Clc1ccc2c(c1)CCc1cccnc1C2=C1CCNCC1 [Example 3 of Stability Tests, desloratadine] | 74 | 26
20 | Clc1ccc2c(c1)CCc1cccnc1C2=C1CCNCC1 [Example 4 of Stability Tests, desloratadine] | 80 | 20

Same assay, conditions: 25° C., 60% RH; 3 months (12 weeks)

Row | Structure (SMILES) | Form 1 (%) | Form 2 (%)
21 | Clc1ccc2c(c1)CCc1cccnc1C2=C1CCNCC1 [Example 1 of Stability Tests, desloratadine] | 52 | 48
22 | Clc1ccc2c(c1)CCc1cccnc1C2=C1CCNCC1 [Example 2 of Stability Tests, desloratadine] | 66 | 34
23 | Clc1ccc2c(c1)CCc1cccnc1C2=C1CCNCC1 [Example 3 of Stability Tests, desloratadine] | 74 | 26
24 | Clc1ccc2c(c1)CCc1cccnc1C2=C1CCNCC1 [Example 4 of Stability Tests, desloratadine] | 81 | 19

Same assay, conditions: 25° C., 60% RH; 6 months (24 weeks)

Row | Structure (SMILES) | Form 1 (%) | Form 2 (%)
25 | Clc1ccc2c(c1)CCc1cccnc1C2=C1CCNCC1 [Example 3 of Stability Tests, desloratadine] | 77 | 23
26 | Clc1ccc2c(c1)CCc1cccnc1C2=C1CCNCC1 [Example 4 of Stability Tests, desloratadine] | 84 | 16

Same assay, conditions: 40° C., 75% RH; 0 week

Row | Structure (SMILES) | Form 1 (%) | Form 2 (%)
27 | Clc1ccc2c(c1)CCc1cccnc1C2=C1CCNCC1 [Example 1 of Stability Tests, desloratadine] | 57 | 43
28 | Clc1ccc2c(c1)CCc1cccnc1C2=C1CCNCC1 [Example 2 of Stability Tests, desloratadine] | 62 | 38
29 | Clc1ccc2c(c1)CCc1cccnc1C2=C1CCNCC1 [Example 3 of Stability Tests, desloratadine] | 74 | 26
30 | Clc1ccc2c(c1)CCc1cccnc1C2=C1CCNCC1 [Example 4 of Stability Tests, desloratadine] | 76 | 24

Same assay, conditions: 40° C., 75% RH; 1 month (4 weeks)

Row | Structure (SMILES) | Form 1 (%) | Form 2 (%)
31 | Clc1ccc2c(c1)CCc1cccnc1C2=C1CCNCC1 [Example 1 of Stability Tests, desloratadine] | 50 | 50
32 | Clc1ccc2c(c1)CCc1cccnc1C2=C1CCNCC1 [Example 2 of Stability Tests, desloratadine] | 65 | 35
33 | Clc1ccc2c(c1)CCc1cccnc1C2=C1CCNCC1 [Example 3 of Stability Tests, desloratadine] | 78 | 22
34 | Clc1ccc2c(c1)CCc1cccnc1C2=C1CCNCC1 [Example 4 of Stability Tests, desloratadine] | 88 | 12

Same assay, conditions: 40° C., 75% RH; 1 week

Row | Structure (SMILES) | Form 1 (%) | Form 2 (%)
35 | Clc1ccc2c(c1)CCc1cccnc1C2=C1CCNCC1 [Example 1 of Stability Tests, desloratadine] | 46 | 54
36 | Clc1ccc2c(c1)CCc1cccnc1C2=C1CCNCC1 [Example 2 of Stability Tests, desloratadine] | 63 | 37
37 | Clc1ccc2c(c1)CCc1cccnc1C2=C1CCNCC1 [Example 3 of Stability Tests, desloratadine] | 77 | 23
38 | Clc1ccc2c(c1)CCc1cccnc1C2=C1CCNCC1 [Example 4 of Stability Tests, desloratadine] | 76 | 24

Same assay, conditions: 40° C., 75% RH; 2 months (8 weeks)

Row | Structure (SMILES) | Form 1 (%) | Form 2 (%)
39 | Clc1ccc2c(c1)CCc1cccnc1C2=C1CCNCC1 [Example 1 of Stability Tests, desloratadine] | 39 | 61
40 | Clc1ccc2c(c1)CCc1cccnc1C2=C1CCNCC1 [Example 2 of Stability Tests, desloratadine] | 65 | 35
41 | Clc1ccc2c(c1)CCc1cccnc1C2=C1CCNCC1 [Example 3 of Stability Tests, desloratadine] | 78 | 22
42 | Clc1ccc2c(c1)CCc1cccnc1C2=C1CCNCC1 [Example 4 of Stability Tests, desloratadine] | 85 | 15

Same assay, conditions: 40° C., 75% RH; 2 weeks

Row | Structure (SMILES) | Form 1 (%) | Form 2 (%)
43 | Clc1ccc2c(c1)CCc1cccnc1C2=C1CCNCC1 [Example 1 of Stability Tests, desloratadine] | 43 | 57
44 | Clc1ccc2c(c1)CCc1cccnc1C2=C1CCNCC1 [Example 2 of Stability Tests, desloratadine] | 64 | 36
45 | Clc1ccc2c(c1)CCc1cccnc1C2=C1CCNCC1 [Example 3 of Stability Tests, desloratadine] | 81 | 19
46 | Clc1ccc2c(c1)CCc1cccnc1C2=C1CCNCC1 [Example 4 of Stability Tests, desloratadine] | 82 | 18

Same assay, conditions: 40° C., 75% RH; 3 months (12 weeks)

Row | Structure (SMILES) | Form 1 (%) | Form 2 (%)
47 | Clc1ccc2c(c1)CCc1cccnc1C2=C1CCNCC1 [Example 3 of Stability Tests, desloratadine] | 75 | 25
48 | Clc1ccc2c(c1)CCc1cccnc1C2=C1CCNCC1 [Example 4 of Stability Tests, desloratadine] | 82 | 18

Same assay, conditions: 40° C., 75% RH; 6 months (24 weeks)

Row | Structure (SMILES) | Form 1 (%) | Form 2 (%)
49 | Clc1ccc2c(c1)CCc1cccnc1C2=C1CCNCC1 [Example 3 of Stability Tests, desloratadine] | 75 | 25
50 | Clc1ccc2c(c1)CCc1cccnc1C2=C1CCNCC1 [Example 4 of Stability Tests, desloratadine] | 82 | 18

Experiment: Solubility of desloratadine
Type: physicochemical
Conditions: not given

Row | Structure (SMILES) | solubility
51 | Clc1ccc2c(c1)CCc1cccnc1C2=C1CCNCC1 [desloratadine, 8-chloro-6,11-dihydro-11-(4-piperidylidene)-5H-benzo[5,6] cyclohepta[1,2-b]pyridine] | very low

Experiment: Stability under grinding by hand in mortar and pestle (XRD)
Conditions: grinding by hand in mortar and pestle for one minute

Row | Structure (SMILES) | change in the XRD pattern after grinding
52 | Clc1ccc2c(c1)CCc1cccnc1C2=C1CCNCC1 [25:75, desloratadine] | do not show any substantial change
53 | Clc1ccc2c(c1)CCc1cccnc1C2=C1CCNCC1 [50:50, desloratadine] | do not show any substantial change
54 | Clc1ccc2c(c1)CCc1cccnc1C2=C1CCNCC1 [75:25, desloratadine] | do not show any substantial change
55 | Clc1ccc2c(c1)CCc1cccnc1C2=C1CCNCC1 [84:16, desloratadine] | do not show any substantial change
56 | Clc1ccc2c(c1)CCc1cccnc1C2=C1CCNCC1 [Form I, desloratadine, reference compound] | stable
57 | Clc1ccc2c(c1)CCc1cccnc1C2=C1CCNCC1 [Form II, desloratadine, reference compound] | stable
